Entries after “also recorded” stand apart in the source; their conditions may differ.
Tests used:
[1] = tested on: Lgr5+ supporting cells isolated from the cochlea; assay: Expansion of Lgr5-GFP inner ear progenitor cells in Matrigel based 3D culture; assay type: cell-based, mouse; details: for GFP+ percentage / GFP+ cell number: named factor removed from EFICVP6, 10 days; for Lgr5-GFP expression, effect of addition / cell proliferation, effect of addition: neonatal Lgr5 inner ear progenitor cells
Description: Cell culture: Heterozygous Lgr5-EGFP-IRES-CreERT2 mice were obtained from Jackson Labs, and neonatal P2-P5 mice were used for cell isolation. Organ of Corti was isolated from Lgr5-GFP mice and further dissociated into single cells using trypsin. Cells were then cultured as previously described (Yin et al, 2014). Briefly, cells were entrapped in Matrigel and plated at the center of wells in a 24-well plate. Following polymerization of Matrigel, 500 μl of culture media (Advanced DMEM/F12 with N2 and B27) was added, containing growth factors including EGF (50 ng/ml) (epidermal growth factor), bFGF (20 ng/ml) (fibroblast growth factor), and IGF1 (50 ng/ml) (insulin-like growth factor 1), and small molecules including CHIR99021 (5 μM), valproic acid (1 mM), 2-phospho-L-ascorbic acid (280 μM), and 616452 (2 μM). Y-27632 (10 μM) was added for the first 2 days. In some experiments, bFGF was used at 50 ng/ml.
For single cell isolation, the organs of Corti were then treated with Cell Recovery Solution (Corning) for 1 h to separate cochlear epithelium from the underlying mesenchyme. Epithelia were then collected and treated with Trypsin (Life Technologies) for 15-20 minutes at 37° C. Single cells obtained by mechanical trituration were filtered by cell strainer (40 μm) and washed with cell culture media. For FACS sorting of Lgr5-high and Lgr5-Low cells, FACS ARIA (BD) was used and Lgr5-GFP was used as indicator of Lgr5 level. Sorted single cells were cultured in Matrigel in inner ear cell culture media with supplement growth factors and small molecules. Y-27632 was added in the first 2 days.
FACS analysis: Cell culture media was removed and Trypsin was added. After incubation at 37° C. for 10-20 min, colonies were dissociated into single cells. Live-cell number were counted using a hemocytometer and trypan blue staining. The cells were then stained with propidium iodide (PI) and analyzed with flow cytometry. The number of GFP-positive cells was calculated by multiplying the total number of cells by the percentage of GFP-positive cells.

[2] = tested on: Atoh1-GFP inner ear epithelial cells; assay: Spontaneous hair cell differentiation of cultured Atoh1-nGFP inner ear epithelial cells; assay type: cell-based, mouse
[3] = tested on: expanded Lgr5-positive cells; assay: Differentiation of expanded Lgr5-positive cells to hair cells; assay type: cell-based, mouse; details: in differentiation media
Description: Differentiation protocol: For differentiation of expanded Lgr5-positive cells, following 10 days of culture in the cell expansion condition (EFICVP6), the cell colonies were transferred to fresh Matrigel and further cultured in differentiation media. Differentiation media contains Notch pathway inhibitor (e.g. DAPT, D, 5 μM, or LY411575, LY, 5 μM), with or without Gsk3β inhibitor (e.g. CHIR99021). Media were changed every other day. Following another 6-10 days of incubation with differentiation media, the colonies were harvested for qPCR analysis or fixed with 4% PFA and immunostained with hair cell markers Myo7a and Prestin.
RNA extraction and quantitative real-time PCR (qPCR): RNA was isolated from cultured cells (RNeasy Mini Kit; Qiagen) according to the manufacturer's protocol. Quantitative real-time PCR was performed with QuantiTect Probe PCR kit (Qiagen) using commercially available primers and TaqMan probes (Myo7a and Hprt Life Technologies).
Immunocytochemistry staining: Colonies were fixed at room temperature in 4% paraformaldehyde/PBS for 15-20 min and then washed twice with PBS containing 0.1% BSA. Cells were then permeabilized with 0.25% Triton X-100 in PBS in 4° C. for 30 minutes. Following 2 washes with PBS containing 0.1% BSA, the cells were incubated with blocking solution (Power Block, Biogenex) for 1 h. Diluted primary antibodies (in Power Block solution) was applied for 4 h at room temperature or overnight at 4° C. Primary antibodies used were Myosin VIIA (1:500, Rabbit polyclonal from Proteus Biosciences) and Prestin (1:400, Goat polyclonal from Santa Cruz). After 3 washes for 5 minutes each, secondary antibodies (Alexafluor 594 and 647-conjugated; Invitrogen) were added at 1:500 dilution and incubated at room temperature for 30 minutes. Nuclei were visualized with 4,6-diamidino-2-phenylindole (DAPI, Vector Laboratories). Staining was visualized with inverted fluorescence microscope (EVOS; Advanced Microscopy Group).

[4] = In vitro drug release from poloxamer-407 hydrogel (dialysis bag method); assay type: physicochemical; details: for initial burst release / cumulative release: pH 7.4, 37° C.; for cumulative release: in 48 h
Description: To understand the release kinetics of encapsulated drugs from poloxamer-407 hydrogels, in vitro release studies were performed using dialysis bag method at pH 7.4 and 37° C. temperature conditions. Briefly, sealed dialysis bag (3.5-5 kDa cutoff) containing 30 μL gel suspended in 1 ml PBS was placed in 10 mL of the release medium (PBS). The release medium was stirred at 100 rpm to prevent the formation of a stagnant layer at the membrane and outer solution interface. 1 mL aliquots were taken from the medium at predetermined intervals for the analysis of drugs using HPLC, and replaced with an equal volume of fresh medium.

[5] = Thermal gelation of poloxamer-407 formulations (visual tube inversion method); assay type: physicochemical
Description: Poloxamer-407 hydrogels were prepared using the “cold-method”. Briefly, a weighed amount of poloxamer-407 was added to 40 ml cold ultra pure water or cold PBS (pH 7.4), and stirred overnight at 4° C. on a magnetic stir plate to effect complete solubilization. Multiple concentrations of poloxamer-407 solution ranging from 18% (w/w) to 25% (w/w) were prepared. Hydrophilic drugs, including valproic acid (VPA) and phosphorylated ascorbic acid (PAC) were added to the 5 ml poloxamer-407 solution and dissolved at 4° C. on a magnetic stir plate. Weight ratio of poloxamer-407 to the drug was varied to understand the effects of drugs on the gelation properties of poloxamer-407, and to determine the optimal formulation that gels at 37° C. with maximum possible loading of the hydrophilic drugs. The gelation temperatures of the formulations were determined by the “visual tube inversion method”. Briefly, glass vials containing poloxamer 407 solutions, with or without the hydrophilic drugs were placed in a water bath.
To encapsulate hydrophobic drugs, including CHIR 99021 (CHIR), Repsox and TTNPB, appropriate volumes from their stock solutions in DMSO were added into the poloxamer-407 solutions containing the hydrophilic drugs, and mixed by pipetting at 4° C. […] Gelation temperature of the formulation was determined by the “visual tube inversion method”, as described before.

[6] = tested on: CBA/CaJ mice; assay: Hearing recovery in noise-deafened mice (auditory brainstem responses); assay type: in vivo, mouse; details: 5, 10, 20, 28.3 and 40 kHz, p<0.05
Description: A 17% (w/w) stock solution of poloxamer 407 gel (Sigma-Aldrich) was prepared by slowly adding it to cold 1× phosphate-buffered saline at pH 7.4. This solution is liquid when refrigerated or at room temperature but solidifies at body temperature. The gel was tinted blue with Evans blue dye (50 ppm) for visualization during administration.
A formulation was prepared as described in Example 4 with 527 mM VPA and 2.975 mM CHIR in 17% Poloxamer 407 with 5% DMSO (“VPA/CHIR”). For comparison, a Notch inhibitor, LY411575, was prepared at 4 mM in 17% Poloxamer 407 with 5% DMSO (“LY411575”). Additionally, a vehicle-only control of 17% Poloxamer 407 with 5% DMSO was prepared (“Control”).
CBA/CaJ mice were deafened in a noise chamber by exposure to an 8-16 kHz octave band noise band for 2 hours at 120 dB SPL. 24 hours after noise exposure, their hearing was assessed by measuring auditory brainstem responses (ABRs). The minimum sound pressure level (SPL) required for visual detection of ABR Wave I was determined at 5, 10, 20, 28.3, and 40 kHz. Following ABR measurements, a trans-tympanic injection of a Poloxamer gel drug mixture (described above as “VPA/CHIR”, “LY411575”, or “Control”) was delivered to fill the middle ear cavity. After 30 days, ABR was assessed and the improvement in hearing threshold from 24 hrs to 30 days after noise exposure was determined.

[7] = tested on: Lgr5 inner ear cells from adult mice; assay: Expansion of Lgr5-GFP inner ear cells from adult mice; assay type: cell-based; details: adult mouse
Description: FIGS. 13A-C depict In vitro culture of Lgr5-GFP inner ear progenitor cells from adult mouse. FIG. 13A: Isolated cochlear from 9-week old mice was cultured in the presence of EFICVP6 for 9 days. Showing out-growth of Lgr5-GFP cells. FIG. 13B: The same culture at day 13. Showing expansion of Lgr5-GFP cells. FIG. 13C: Passage 2 of the same culture at day 5 after passage (Day 19). All scale bars: 100 μm. Specifically, cochlear was isolated from 9-week old adult mice, directly mixed with Matrigel and plated at the center of well of a 24-well plate. Cell culture medium in the presence of EGF, bFGF, IGF-1, CHIR99021, VPA, L-Ascorbic acid 2-phosphate (pVc) and a TGF-β RI Kinase Inhibitor II (616452) was added following gelation of Matrigel. The tissue was cultured for 2 weeks until Lgr5-GFP cells expanded and form out-growth. After 2 weeks (Day 14) the tissue was then dissociated using trypsin, re-plated and further cultured.
For adult tissue, the stria vascularis was removed but the epithelium was not removed from the underlying mesenchyme due to the limited amount of intact cochlea that could be extracted. For adult cells, additional small molecule TTNPB (2 μM, Tocris) was added and the complete media contain EGF, bFGF, IGF-1, CHIR99021, VPA, pVc, 616452 and TTNPB.

[8] = factor removed from the culture medium
[9] = named factor removed, versus EFICVP6

Row | SMILES | importance of the factor for Lgr5-GFP expression [1, 8] | GFP+ percentage [1] [%] | decrease of GFP+ cell number [1, 9] [fold] | decrease of GFP+ percentage [1, 9] [fold] | spontaneous differentiation of hair cells ([2]; Atoh1-nGFP mouse line, 7 days) | effect on differentiation of hair cells [3] | release kinetics [4] | initial burst release ([4]; in 0.5 h) [%] | cumulative release [4] [%] | concentration that inhibited gelation of poloxamer-407 solution [5] | hearing recovery [6] | importance of the factor for cell proliferation [1, 8] | GFP+ cell number [1] | decrease of total cell number [1, 9] [fold] | differentiation to Atoh-1+ cells [2] | initial burst release ([4]; in 2 h) [%] | Lgr5-GFP expression, effect of addition [1] | cell proliferation, effect of addition [1] | GFP+ colony formation [7] | proliferation of adult Lgr5 cells [7]
1 | CCCC(CCC)C(=O)O [VPA, 2-propylpentanoic acid] | important for GFP expression; also recorded: greater impact on GFP maintenance; also recorded: greatly reduced Lgr5 expression; also recorded: important to promote GFP maintenance | 28 | 2 | 2 | inhibited the differentiation of inner ear progenitor cells towards Atoh1 positive hair cells; also recorded: suppressed spontaneous differentiation of hair cells; also recorded: functions through suppressing differentiation | inhibit the differentiation of hair cells | significantly faster as compared to that of CHIR | 17 | 98 | greater than 88 mg/ml |  |  |  |  |  |  |  |  |  | 
2 | C[C@H](NC(=O)[C@@H](O)c1cc(F)cc(F)c1)C(=O)N[C@@H]1C(=O)N(C)c2ccccc2-c2ccccc21 [LY411575, N-2((2S)-2-(3,5-difluorophenyl)-2-hydroxyethanoyl)-N 1-((7S)-5-methyl-6-oxo-6,7-dihydro-5H-dibenzo[b,d]azepin-7-yI)-1-alaninamide] |  |  |  |  |  |  |  |  |  |  | significant recovery at 10 kHz, 28.3 KHz, and 40 kHz |  |  |  |  |  |  |  |  | 
3 | Cc1c[nH]c(-c2cnc(NCCNc3ccc(C#N)cn3)nc2-c2ccc(Cl)cc2Cl)n1 [CHIR, 6-[[2-[[4-(2,4-dichlorophenyl)-5-(5-methyl-1H-imidazol-2-yl)-2-pyrimidinyl]amino]ethyl]amino]-3-pyridinecarbonitrile] | critical for cell proliferation and GFP expression; also recorded: greatly impacted GFP expression; also recorded: greatest effect on Lgr5 expression; also recorded: important to promote cell proliferation and GFP expression | 1.3 | ~4000 | ~50 |  | increases the differentiation efficiency of a Notch inhibitor |  |  | 33 |  |  | critical for cell proliferation and GFP expression; also recorded: greatly impacted cell proliferation; also recorded: greatest effect on proliferation; also recorded: important to promote cell proliferation and GFP expression | ~65 cells | ~100 | can promote differentiation to Atoh-1+ cells | 10 |  |  |  | 
4 | O=C1O[C@H]([C@@H](O)CO)C(O)=C1OP(=O)(O)O [pVc, 2-phospho-L-ascorbic acid] | greater impact on GFP maintenance; also recorded: greatly reduced Lgr5 expression; also recorded: important to promote GFP maintenance | 25 | 2 | 2 |  | inhibit the differentiation of hair cells |  |  |  | > 14000 µg/mL |  |  | 1.1×10^5 cells |  |  |  | promoted GFP expression from Lgr5-GFP inner ear progenitor cells; also recorded: promotes GFP expression | increases cell proliferation of Lgr5 inner ear progenitor cells |  | 
5 | C/C(=C\c1ccc(C(=O)O)cc1)c1ccc2c(c1)C(C)(C)CCC2(C)C [TTNPB] |  |  |  |  |  |  |  |  |  |  |  |  |  |  |  |  | didn't increase GFP expression | increased cell proliferation; also recorded: slightly increased cell proliferation | formation of GFP^+ colonies | increase cell proliferation; also recorded: significantly promoted the proliferation of cultured cells; also recorded: promote the proliferation of adult Lgr5 inner ear progenitor cells

Reference: patent US11369607B2, “Compositions, systems, and methods for generating inner ear hair cells for treatment of hearing loss” (Massachusetts Institute of Technology, priority 2014, dated 2022)
